Test results reported in patent US6656676B2, “Silver halide color photographic material” (Konica Corporation, priority 2001, dated 2003).

test: pKa of the oil-soluble basic compound by alkalimetry; format: physicochemical; conditions: ethanol/water solution, alkalimetry at 25° C.
Method: As is commonly known, the pKa value refers to a logarithmic acid dissociation constant (Ka), i.e., pKa=−logKa, which is also called an acid electrolytic dissociation exponent. The pKa value of the oil-soluble basic compound can be determined by the alkalimetry, in the following manner. Thus, 50 mg pf a compound sample is dissolved in 40 ml of ethanol and after adding 10 ml of distilled water thereto, 3 ml of a 0.5 mol/l hydrochloric solution and 12 ml of ethanol are further added. The thus prepared solution is subjected to an alkalimetry at a temperature of 25° C. using an alkaline solution (which is comprised of 2.0 g of sodium hydroxide, 200 ml of distilled water and 800 ml of ethanol) and an automatic titration apparatus (Auto Titrator AUT-301, available from TOA electronics, Ltd.).

SMILES	pKa
CCCCCCCCCCCCCCOC(=O)CCN1CCN(CCC(=O)OCCCCCCCCCCCCCC)CC1 [OC-4]	6.2
CCCCCCCCCCCCCCOc1ccc(N2CCCCC2)cc1 [Compd.-2]	5
CC1(C)CC(OC(=O)CCCCCCCCC(=O)OC2CC(C)(C)NC(C)(C)C2)CC(C)(C)N1 [Compd.-3]	8.7
CCCCCCCCCCCCN1CCN(CCCCCCCCCCCC)CC1 [OC-6]	7.2
